Source: patent US20250270213A1, “PI3Ka INHIBITORS” (Synnovation Therapeutics, Inc., priority 2022, published 2025)

These compounds were tested on T47D (PIK3CA H1047R) cells (assay: pS473 AKT assay with 2.5% FBS, T47D cells). Details: Homo sapiens, pSer473 AKT, DMEM with 2.5% FBS, 2 h treatment, read-out: T47D_IC50.
Type: cell-based
Summary of the method: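 T47D (PIK3CA H1047R) cells were switched to DMEM with 2.5% FBS and exposed to compounds for 2 h. After paraformaldehyde fixation, pSer473 AKT was detected by in-cell ELISA (rabbit primary, HRP anti-rabbit secondary, chemiluminescence); IC50 values were fitted from the concentration series.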

| Structure (SMILES) | IC50 |
| --- | --- |
| CCn1ncc2c3c(CNc4ccc(Cl)nc4-c4ccc(C(=O)NC)c(F)c4)cc(C)cc3c(=O)n(C)c21 [Example 225, 4-(6-Chloro-3-(((3-ethyl-4,7-dimethyl-5-oxo-4,5-dihydro-3H-pyrazolo[3,4-c]isoquinolin-9-yl)methyl)amino)pyridin-2-yl)-2-fluoro-N-methylbenzamide] | < 1 µM |
| CCn1ncc2c3c(C(C)Oc4ccc(Cl)nc4-c4c[nH]nc4C)cc(C)cc3c(=O)n(C)c21 (stereo not shown) [Example 226, 9-(1-((6-Chloro-2-(3-methyl-1H-pyrazol-4-yl)pyridin-3-yl)oxy)ethyl)-3-ethyl-4,7-dimethyl-3,4-dihydro-5H-pyrazolo[3,4-c]isoquinolin-5-one] | < 1 µM |
| [2H]C([2H])([2H])n1c(=O)c2cc(C)cc(C(C)Nc3ccc(Cl)nc3-c3noc(=O)[nH]3)c2c2cnn(CC)c21 (stereo not shown) [Example 227, 3-(6-Chloro-3-((1-(3-ethyl-7-methyl-4-(methyl-d3)-5-oxo-4,5-dihydro-3H-pyrazolo[3,4-c]isoquinolin-9-yl)ethyl)amino)pyridin-2-yl)-1,2,4-oxadiazol-5(4H)-one] | < 1 µM |
| CCn1ncc2c3c(C(C)Nc4ccc(Cl)nc4-c4ncn(C)n4)cc(C)cc3c(=O)n(C)c21 (stereo not shown) [Example 228, 9-(1-((6-chloro-2-(1-methyl-1H-1,2,4-triazol-3-yl)pyridin-3-yl)amino)ethyl)-3-ethyl-4,7-dimethyl-3,4-dihydro-5H-pyrazolo[3,4-c]isoquinolin-5-one] | < 1 µM |
| CCn1ncc2c3c(C(C)Nc4ccc(Cl)nc4-c4nncn4C)cc(C)cc3c(=O)n(C)c21 (stereo not shown) [Example 229, 9-(1-((6-chloro-2-(4-methyl-1H-1,2,4-triazol-3-yl)pyridin-3-yl)amino)ethyl)-3-ethyl-4,7-dimethyl-3,4-dihydro-5H-pyrazolo[3,4-c]isoquinolin-5-one] | < 1 µM |
| CCn1ncc2c3c(C(C)Nc4ccc(Cl)nc4-c4nnn[nH]4)cc(C)cc3c(=O)n(C)c21 (stereo not shown) [Example 230, 9-(1-((6-chloro-2-(1H-tetrazol-5-yl)pyridin-3-yl)amino)ethyl)-3-ethyl-4,7-dimethyl-3,4-dihydro-5H-pyrazolo[3,4-c]isoquinolin-5-one] | < 1 µM |
| CCn1ncc2c3c(C(C)Nc4ccc(Cl)nc4-c4cnnn4C)cc(C)cc3c(=O)n(C)c21 (stereo not shown) [Example 231, 9-(1-((6-chloro-2-(1-methyl-1H-1,2,3-triazol-5-yl)pyridin-3-yl)amino)ethyl)-3-ethyl-4,7-dimethyl-3,4-dihydro-5H-pyrazolo[3,4-c]isoquinolin-5-one] | < 1 µM |
| CCn1ncc2c3c(C(C)Nc4ccc(Cl)nc4-c4cnn(C5CCN(C(=O)N(C)C)CC5)c4)cc(C)cc3c(=O)n(C)c21 (stereo not shown) [Example 233, 4-(4-(6-chloro-3-((1-(3-ethyl-4,7-dimethyl-5-oxo-4,5-dihydro-3H-pyrazolo[3,4-c]isoquinolin-9-yl)ethyl)amino)pyridin-2-yl)-1H-pyrazol-1-yl)-N,N-dimethylpiperidine-1-carboxamide] | < 1 µM |
| CCn1ncc2c3c(C(C)Nc4ccc(Cl)nc4-c4cnn(C5CCN(CCC#N)CC5)c4)cc(C)cc3c(=O)n(C)c21 (stereo not shown) [Example 234, 3-(4-(4-(6-chloro-3-((1-(3-ethyl-4,7-dimethyl-5-oxo-4,5-dihydro-3H-pyrazolo[3,4-c]isoquinolin-9-yl)ethyl)amino)pyridin-2-yl)-1H-pyrazol-1-yl)piperidin-1-yl)propanenitrile] | < 1 µM |
| CCn1ncc2c3c(C(C)Nc4ccc(C)nc4-c4c[nH]nc4C)cc(C)cc3c(=O)n(C)c21 (stereo not shown) [Example 235, 3-ethyl-4,7-dimethyl-9-(1-((6-methyl-2-(3-methyl-1H-pyrazol-4-yl)pyridin-3-yl)amino)ethyl)-3,4-dihydro-5H-pyrazolo[3,4-c]isoquinolin-5-one] | < 1 µM |

The next lines start with the values.

| IC50 | Structure (SMILES) |
| --- | --- |
| < 1 µM | Cc1cc(C(C)Nc2ccc(Cl)nc2-c2cnn(C)c2)c2c(c1)c(=O)n(C)c1nn(C3CCN(C(=O)N(C)C)CC3)cc21 (stereo not shown) [Example 211, 4-(9-(1-((6-chloro-2-(1-methyl-1H-pyrazol-4-yl)pyridin-3-yl)amino)ethyl)-4,7-dimethyl-5-oxo-4,5-dihydro-2H-pyrazolo[3,4-c]isoquinolin-2-yl)-N,N-dimethylpiperidine-1-carboxamide] |
| < 1 µM | Cc1cc(C(C)Nc2ccc(Cl)nc2-c2cnn(C)c2)c2c(c1)c(=O)n(C)c1nn(C3CCN(CC(F)F)CC3)cc21 (stereo not shown) [Example 212, 9-(1-((6-Chloro-2-(1-methyl-1H-pyrazol-4-yl)pyridin-3-yl)amino)ethyl)-2-(1-(2,2-difluoroethyl)piperidin-4-yl)-4,7-dimethyl-2,4-dihydro-5H-pyrazolo[3,4-c]isoquinolin-5-one] |
| < 1 µM | [2H]C([2H])([2H])n1c(=O)c2cc(C)cc(C(C)Nc3ccc(Cl)nc3-c3noc(=O)[nH]3)c2c2cnn([C@H]3CCOC3)c21 (stereo partly drawn) [Example 213, 3-[6-Chloro-3-[1-[7-methyl-5-oxo-3-[(3S)-tetrahydrofuran-3-yl]-4-(trideuteriomethyl)pyrazolo[3,4-c]isoquinolin-9-yl]ethylamino]-2-pyridyl]-4H-1,2,4-oxadiazol-5-one] |
| < 1 µM | [2H]C([2H])([2H])n1c(=O)c2cc(C)cc(C(C)Nc3ccc(Cl)nc3-c3cnn(C)c3)c2c2cnn([C@H]3CCOC3)c21 (stereo partly drawn) [Example 214, 9-(1-((6-chloro-2-(1-methyl-1H-pyrazol-4-yl)pyridin-3-yl)amino)ethyl)-7-methyl-4-(methyl-d3)-3-((S)-tetrahydrofuran-3-yl)-3,4-dihydro-5H-pyrazolo[3,4-c]isoquinolin-5-one] |
| < 1 µM | CCn1c(=O)c2cc(C)cc(C(C)Nc3ccc(Cl)nc3-c3noc(=O)[nH]3)c2c2cnn([C@H]3CCOC3)c21 (stereo partly drawn) [Example 215, 3-(6-chloro-3-((1-(4-ethyl-7-methyl-5-oxo-3-((S)-tetrahydrofuran-3-yl)-4,5-dihydro-3H-pyrazolo[3,4-c]isoquinolin-9-yl)ethyl)amino)pyridin-2-yl)-1,2,4-oxadiazol-5(4H)-one] |
| < 1 µM | CCn1c(=O)c2cc(C)cc(C(C)Nc3ccc(Cl)nc3-c3ncn(C)n3)c2c2cnn([C@H]3CCOC3)c21 (stereo partly drawn) [Example 216, 9-(1-((6-chloro-2-(1-methyl-1H-1,2,4-triazol-3-yl)pyridin-3-yl)amino)ethyl)-4-ethyl-7-methyl-3-((S)-tetrahydrofuran-3-yl)-3,4-dihydro-5H-pyrazolo[3,4-c]isoquinolin-5-one] |
| < 1 µM | CCn1c(=O)c2cc(C)cc(C(C)Nc3ccc(Cl)nc3-c3cnn(C4CCN(C)CC4)c3)c2c2cnn([C@H]3CCOC3)c21 (stereo partly drawn) [Example 217, 9-(1-((6-chloro-2-(1-(1-methylpiperidin-4-yl)-1H-pyrazol-4-yl)pyridin-3-yl)amino)ethyl)-4-ethyl-7-methyl-3-((S)-tetrahydrofuran-3-yl)-3,4-dihydro-5H-pyrazolo[3,4-c]isoquinolin-5-one] |
| < 1 µM | CCn1c(=O)c2cc(C)cc(C(C)Nc3ccc(Cl)nc3-c3ccnc(C)c3)c2c2cnn([C@H]3CCOC3)c21 (stereo partly drawn) [Example 218, 9-(1-((6-chloro-2′-methyl-[2,4′-bipyridin]-3-yl)amino)ethyl)-4-ethyl-7-methyl-3-((S)-tetrahydrofuran-3-yl)-3,4-dihydro-5H-pyrazolo[3,4-c]isoquinolin-5-one] |
| < 1 µM | CCn1c(=O)c2cc(C)cc(C(C)Nc3ccc(Cl)nc3-c3ccc(=O)n(C)c3)c2c2cnn([C@H]3CCOC3)c21 (stereo partly drawn) [Example 219, 9-(1-((6-chloro-1′-methyl-6′-oxo-1′,6′-dihydro-[2,3′-bipyridin]-3-yl)amino)ethyl)-4-ethyl-7-methyl-3-((S)-tetrahydrofuran-3-yl)-3,4-dihydro-5H-pyrazolo[3,4-c]isoquinolin-5-one] |
| < 1 µM | CCn1c(=O)c2cc(C)cc(C(C)Nc3ccc(Cl)nc3-c3ccc(C(=O)NC)nc3)c2c2cnn([C@H]3CCOC3)c21 (stereo partly drawn) [Example 220, 6-chloro-3-((1-(4-ethyl-7-methyl-5-oxo-3-((S)-tetrahydrofuran-3-yl)-4,5-dihydro-3H-pyrazolo[3,4-c]isoquinolin-9-yl)ethyl)amino)-N-methyl-[2,3′-bipyridine]-6′-carboxamide] |
| < 1 µM | CCn1ncc2c3c(C(C)Nc4ccc(Cl)nc4-c4ncn(C)n4)cc(C)cc3c(=O)n(C3CC3)c21 (stereo not shown) [Example 221, 9-(1-((6-Chloro-2-(1-methyl-1H-1,2,4-triazol-3-yl)pyridin-3-yl)amino)ethyl)-4-cyclopropyl-3-ethyl-7-methyl-3,4-dihydro-5H-pyrazolo[3,4-c]isoquinolin-5-one] |
| < 1 µM | CCn1ncc2c3c(C(C)Nc4ccc(Cl)nc4-c4ccc(=O)n(C)c4)cc(C)cc3c(=O)n(C3CC3)c21 (stereo not shown) [Example 222, 9-[1-[[6-chloro-2-(1-methyl-6-oxo-3-pyridyl)-3-pyridyl]amino]ethyl]-4-cyclopropyl-3-ethyl-7-methyl-pyrazolo[3,4-c]isoquinolin-5-one] |
| < 1 µM | CCn1ncc2c3c(C(C)Nc4ccc(Cl)nc4-c4ncn(C)n4)cc(C)cc3c(=O)n(C3CCOC3)c21 (stereo not shown) [Example 223, 9-[1-[[6-Chloro-2-(1-methyl-1,2,4-triazol-3-yl)-3-pyridyl]amino]ethyl]-3-ethyl-7-methyl-4-tetrahydrofuran-3-yl-pyrazolo[3,4-c]isoquinolin-5-one] |
| < 1 µM | CCn1ncc2c3c(C(C)Nc4ccc(Cl)nc4-c4ncn(C)n4)cc(C)cc3c(=O)n(CCO)c21 (stereo not shown) [Example 224, 9-[1-[[6-Chloro-2-(1-methyl-1,2,4-triazol-3-yl)-3-pyridyl]amino]ethyl]-3-ethyl-4-(2-hydroxyethyl)-7-methyl-pyrazolo[3,4-c]isoquinolin-5-one] |

Same assay, conditions: pSer473 AKT, DMEM with 2.5% FBS, 2 h treatment, read-out: T47D_IC50

| IC50 | Structure (SMILES) |
| --- | --- |
| < 1 µM | CCn1ncc2c3c(C(C)Nc4ccc(Cl)nc4-c4ccc(C(=O)O)cc4)cc(C)cc3c(=O)n(C)c21 (stereo not shown) [Example 232, 4-(6-chloro-3-((1-(3-ethyl-4,7-dimethyl-5-oxo-4,5-dihydro-3H-pyrazolo[3,4-c]isoquinolin-9-yl)ethyl)amino)pyridin-2-yl)benzoic acid] |
